Test results as given in the NIST ThermoML archive (doi:10.1021/acs.jced.5b00242).

Experiments:
[1] = Liquid; for viscosity: 101 kPa; for mass density: 101.33 kPa, Vibrating tube method
[2] = refractive index (Na D-line) (dimensionless); conditions: 101 kPa, Liquid, Standard Abbe refractometry
[3] = refractive index (Na D-line) (dimensionless); xn = mol fraction of the nth substance listed; conditions: 101 kPa, Liquid, Standard Abbe refractometry, x1 = 1
[4] = xn = mol fraction of the nth substance listed; conditions: 101 kPa, Liquid, x1 = 1; for viscosity: Stabinger Viscometer; for mass density: Vibrating tube method

CC[n+]1ccn(C)c1.N[C@@H](CO)C(=O)[O-] [3-ethyl-1-methyl-1H-imidazolium L-serinate]
[1], Stabinger Viscometer
Conditions	viscosity [mPa·s]
293.15 K	3796.8
298.15 K	2235.5
303.15 K	1376.2
308.15 K	882.82
313.15 K	588.27
318.15 K	405.12
323.15 K	287.6
328.15 K	209.91
333.15 K	157.29
338.15 K	119.86
343.15 K	93.36
348.15 K	74.03
353.15 K	59.91

Conditions	mass density, [1] [kg/m3]	refractive index, [2]
293.15 K	1206.8	1.52699
298.15 K	1203.7	1.52565
303.15 K	1200.5	1.52429
308.15 K	1197.3	1.52294
313.15 K	1194	1.52159
318.15 K	1190.9	1.52022
323.15 K	1187.8	1.51887
328.15 K	1184.7	1.51755
333.15 K	1181.7	1.5162
338.15 K	1178.7	1.51486
343.15 K	1175.7	1.51353
348.15 K	1172.8	1.5122
353.15 K	1169.7	1.51084

CCn1cc[n+](C)c1.NCC(=O)[O-] [1-ethyl-3-methylimidazolium ammonioacetate]
[1], Stabinger viscometer
Conditions	viscosity [mPa·s]
293.15 K	240.18
298.15 K	171.97
303.15 K	126.19
308.15 K	95.04
313.15 K	73.5
318.15 K	57.66
323.15 K	46.21
328.15 K	37.66
333.15 K	31.24
338.15 K	26.08
343.15 K	22.11
348.15 K	18.95
353.15 K	16.45

Conditions	mass density, [1] [kg/m3]	refractive index, [2]
293.15 K	1164.3	1.52134
298.15 K	1161.2	1.51997
303.15 K	1158.1	1.5186
308.15 K	1155	1.51724
313.15 K	1152	1.51585
318.15 K	1149	1.5145
323.15 K	1146	1.51313
328.15 K	1143	1.51179
333.15 K	1139.9	1.51041
338.15 K	1136.9	1.50904
343.15 K	1133.8	1.50769
348.15 K	1130.7	1.50637
353.15 K	1127.4	1.50495

CCn1cc[n+](C)c1.NCCS(=O)(=O)[O-] [1-ethyl-3-methylimidazolium taurinate]
[1], Stabinger Viscometer
Conditions	viscosity [mPa·s]
293.15 K	760.89
298.15 K	514.67
303.15 K	359.36
308.15 K	258.04
313.15 K	190.44
318.15 K	143.31
323.15 K	110.35
328.15 K	86.59
333.15 K	69.36
338.15 K	56.05
343.15 K	46.1
348.15 K	38.4
353.15 K	32.53

Conditions	mass density, [1] [kg/m3]	refractive index, [2]
293.15 K	1255	1.5135
298.15 K	1251.5	1.51217
303.15 K	1248.1	1.51084
308.15 K	1244.8	1.5095
313.15 K	1241.6	1.50816
318.15 K	1238.6	1.5068
323.15 K	1235.5	1.50543
328.15 K	1232.4	1.50403
333.15 K	1229.2	1.5027
338.15 K	1226.1	1.50136
343.15 K	1223	1.49997
348.15 K	1219.9	1.4986
353.15 K	1216.8	1.49726

CCn1cc[n+](C)c1.N#C[C-](C#N)C#N [1-ethyl-3-methyl-1H-imidazolium tricyanomethanide] + CC[n+]1ccn(C)c1.N[C@@H](CO)C(=O)[O-]
Conditions	mass density, [4] [kg/m3]	refractive index, [3]	viscosity, [4] [mPa·s]
293.15 K	1084.6	1.51454	16.62
298.15 K	1081	1.51286	14.19
303.15 K	1077.5	1.51114	12.18
308.15 K	1073.9	1.50938	10.58
313.15 K	1070.4	1.50765	9.02
318.15 K	1067.1	1.50595	8.2
323.15 K	1063.7	1.50419	7.31
328.15 K	1060.3	1.50255	6.56
333.15 K	1056.9	1.50087	5.72
338.15 K	1053.6	1.49921	5.38
343.15 K	1050.2	1.49757	4.91
348.15 K	1046.8	1.49593	4.5
353.15 K	1043.4	1.49429	3.98
